Results on 14 compounds are retold here after patent US7601746B2 (Shionogi & Co., Ltd., priority 2003, dated 2009).

The first assay deals with T1, human TPO receptor (hTPOR) (Homo sapiens, UniProt P40238).
T1 construct: expressed in transfected cells; host or cells: BaF-B03 (murine IL-3 dependent cell line)
T1 sequence (P40238 26-635): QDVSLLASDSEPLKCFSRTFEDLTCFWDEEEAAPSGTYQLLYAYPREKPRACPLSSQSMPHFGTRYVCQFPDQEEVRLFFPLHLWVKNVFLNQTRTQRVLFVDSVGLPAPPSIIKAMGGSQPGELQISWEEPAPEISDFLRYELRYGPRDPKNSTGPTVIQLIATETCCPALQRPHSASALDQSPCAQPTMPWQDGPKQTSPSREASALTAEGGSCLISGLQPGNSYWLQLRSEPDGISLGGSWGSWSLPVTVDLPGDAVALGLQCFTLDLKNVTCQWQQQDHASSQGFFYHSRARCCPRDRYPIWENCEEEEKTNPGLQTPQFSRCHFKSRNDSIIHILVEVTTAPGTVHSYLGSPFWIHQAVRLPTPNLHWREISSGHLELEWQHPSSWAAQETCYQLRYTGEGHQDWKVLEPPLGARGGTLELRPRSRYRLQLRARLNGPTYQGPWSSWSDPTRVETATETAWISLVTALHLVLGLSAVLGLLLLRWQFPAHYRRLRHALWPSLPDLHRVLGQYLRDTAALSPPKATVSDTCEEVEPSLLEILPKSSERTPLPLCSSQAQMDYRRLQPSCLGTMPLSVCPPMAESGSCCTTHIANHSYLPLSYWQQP
In words: Thrombopoietic activity: proliferation of TPO dependent BaF/hTPOR cells (WST-1, absorbance at 450 nm). The class given is cell-based. Particulars: 20 h + 4 h WST-1, ED50 = half concentration of the concentration showing the maximum thrombopoietic activity, Table 1. Put shortly: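 Proliferation read-out: WST-1 absorbance at 450 nm after 20 h compound exposure plus 4 h reagent, using IL-3-deprived BaF/hTPOR cells (5×10^4 per well) dependent on human TPO receptor signalling. ED50 defined as half the concentration producing maximal activity.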
(In general: Tetrazolium assays rely on reduction of a dye to a coloured formazan, in cell work by metabolically active cells.)
With `COc1c(CCCOCC2CC2)cccc1-c1csc(NC(=O)c2cc(Cl)c(/C=C(\C)C(=O)O)c(Cl)c2)n1` [Compound B1945, (E)-3-(2,6-dichloro-4-{4-[3-(3-cyclopropylmethyloxypropyl)-2-methyloxyphenyl]thiazol-2-ylcarbamoyl}phenyl)-2-methylacrylic acid], the EC50 – broadly, the midpoint of the concentration-response curve – was determined as 0.0193 µM.

`COc1c(CCCOCC2CCCC2)cccc1-c1csc(NC(=O)c2cc(F)c(/C=C(\C)C(=O)O)c(F)c2)n1` [Compound B1948, (E)-3-(4-{4-[3-(3-cyclopentylmethyloxypropyl)-2-methyloxyphenyl]thiazol-2-ylcarbamoyl}-2,6-difluorophenyl)-2-methylacrylic acid]: the concentration for a half-maximal effect (EC50) was found to be 0.0109 µM.

With `COc1c(CCCOCC2CCCC2)cccc1-c1csc(NC(=O)c2cc(Cl)c(/C=C(\C)C(=O)O)c(Cl)c2)n1` [Compound B1949, (E)-3-(2,6-dichloro-4-{4-[3-(3-cyclopentylmethyloxypropyl)-2-methyloxyphenyl]thiazol-2-ylcarbamoyl}phenyl)-2-methylacrylic acid], the concentration giving a half-maximal response (EC50) came out at 0.0132 µM.

In the case of `CCCCCCCOCCc1cccc(-c2csc(NC(=O)c3cc(F)c(/C=C(\C)C(=O)O)c(F)c3)n2)c1OC` [Compound B1952, (E)-3-(2,6-difluoro-4-{4-[3-(2-heptyloxyethyl)-2-methyloxyphenyl]thiazol-2-ylcarbamoyl}phenyl)-2-methylacrylic acid], the EC50 was determined as 0.0101 µM.

As to `CCCCCCCOCCc1cccc(-c2csc(NC(=O)c3cc(F)c(/C=C(\OC)C(=O)O)c(F)c3)n2)c1OC` [Compound B1953, (Z)-3-(2,6-difluoro-4-{4-[3-(2-heptyloxyethyl)-2-methyloxyphenyl]thiazol-2-ylcarbamoyl}phenyl)-2-methyloxyacrylic acid], the EC50 was determined as 0.0101 µM.

On to `COc1c(CCOCCC(C)C)cccc1-c1csc(NC(=O)c2cc(F)c(/C=C(\C)C(=O)O)c(F)c2)n1` [Compound B1954], for which the EC50 is 0.0129 µM.

As for `COc1c(CCOCCC(C)C)cccc1-c1csc(NC(=O)c2cc(Cl)c(/C=C(\C)C(=O)O)c(Cl)c2)n1` [Compound B1955], the EC50 was found to be 0.0117 µM.

Regarding `CO/C(=C\c1c(F)cc(C(=O)Nc2nc(-c3cccc(CCOCCC(C)C)c3OC)cs2)cc1F)C(=O)O` [Compound B1956], the EC50 came to 0.0151 µM.

Regarding `COc1c(CCOCC2CCCCC2)cccc1-c1csc(NC(=O)c2cc(F)c(/C=C(\C)C(=O)O)c(F)c2)n1` [Compound B1957], the 50% effective concentration (EC50) worked out at 0.0128 µM.

`CCC(CC)COCCc1cccc(-c2csc(NC(=O)c3cc(Cl)c(/C=C(\C)C(=O)O)c(Cl)c3)n2)c1OC` [Compound B1958, (E)-3-[2,6-dichloro-4-(4-{3-[2-(2-ethylbutyloxy)ethyl]-2-methyloxyphenyl}thiazol-2-ylcarbamoyl)phenyl]-2-methylacrylic acid]: the EC50 came to 0.00757 µM.

For the compound `CCC(CC)COCCc1cccc(-c2csc(NC(=O)c3cc(F)c(/C=C(\C)C(=O)O)c(F)c3)n2)c1OC` [Compound B1959, (E)-3-[4-(4-{3-[2-(2-ethylbutyloxy)ethyl]-2-methyloxyphenyl}thiazol-2-ylcarbamoyl)-2,6-difluorophenyl]-2-methylacrylic acid], the EC50 came to 0.0113 µM.

As for `CCC(CC)COCCc1cccc(-c2csc(NC(=O)c3cc(Cl)c(/C=C(\OC)C(=O)O)c(Cl)c3)n2)c1OC` [Compound B1960, (Z)-3-[2,6-dicholoro-4-(4-{3-[2-(2-ethylbutyloxy)ethyl]-2-methyloxyphenyl}thiazol-2-ylcarbamoyl)phenyl]-2-methyloxyacrylic acid], the EC50 was determined as 0.0101 µM.

The same assay, now with this note: 20 h + 4 h WST-1, ED50 = half concentration of the concentration showing the maximum thrombopoietic activity, Table 2.
In the case of `CO/C(=C\c1c(Cl)cc(C(=O)Nc2nc(-c3cccc(COCCCC(C)C)c3OC)cs2)cc1Cl)C(=O)O` [Compound B1941], the EC50 was 0.0241 µM.

`CO/C(=C\c1c(Cl)cc(C(=O)Nc2nc(-c3cccc(CCCOCC4CCCC4)c3OC)cs2)cc1Cl)C(=O)O` [Compound B1951, (Z)-3-(2,6-dichloro-4-{4-[3-(3-cyclopentylmethyloxypropyl)-2-methyloxyphenyl]thiazol-2-ylcarbamoyl}phenyl)-2-methyloxyacrylic acid]: the EC50 was determined as 0.0223 µM.
